Measurements reported in ChEMBL document CHEMBL5357010, “Amine Basicity of Quinoline ATP Synthase Inhibitors Drives Antibacterial Activity against Pseudomonas aeruginosa” (ACS Med Chem Lett, 2024).
Converted amounts (≈) assume the structure as drawn.

Columns and labels:
[1] = Inhibition of Pseudomonas aeruginosa 9027 electron transport chain in inverted membrane vesicles assessed as fluorescence quenching using amino-6-chloro-2-methoxyacridine; assay type: cell membranes
[2] = Inhibition of Pseudomonas aeruginosa ATP synthase expressed in Escherichia coli DK8/pASH20 inverted membrane vesicles by luciferin/luciferase luminescence assay; assay type: cell membranes, Membrane vesicle
[3] = Selectivity ratio of IC50 for Pseudomonas aeruginosa 9027 electron transport chain to IC50 for Pseudomonas aeruginosa ATP synthase; assay type: toxicity
Pseudomonas aeruginosa [4] = experiment: Antibacterial activity against Pseudomonas aeruginosa 9027 assessed as growth inhibition incubated for 12 to 15 hrs by broth microdilution method; assay type: functional; settings: time 12-15 hrs
Pseudomonas aeruginosa [5] = experiment: Antibacterial activity against Pseudomonas aeruginosa ATCC BAA-2109 assessed as growth inhibition incubated for 12 to 15 hrs by broth microdilution method; assay type: functional; settings: time 12-15 hrs
Pseudomonas aeruginosa [6] = experiment: Antibacterial activity against Pseudomonas aeruginosa ATCC BAA-2108 assessed as growth inhibition incubated for 12 to 15 hrs by broth microdilution method; assay type: functional; settings: time 12-15 hrs
Pseudomonas aeruginosa [7] = experiment: Antibacterial activity against Pseudomonas aeruginosa efflux knockout GKCW120 (Pdelta6) assessed as growth inhibition incubated for 12 to 15 hrs by broth microdilution method; assay type: functional; settings: time 12-15 hrs
Pseudomonas aeruginosa [8] = experiment: Antibacterial activity against Pseudomonas aeruginosa ATCC BAA-2110 assessed as growth inhibition incubated for 12 to 15 hrs by broth microdilution method; assay type: functional; settings: time 12-15 hrs
[9] = Inhibition of Escherichia coli electron transport chain in inverted membrane vesicles; assay type: cell membranes
[10] = Solubility of the compound in antibacterial activity assay medium; assay type: physicochemical

Row | Compound | IC50 [1] [µg/mL] | IC50 [2] [µg/mL] | Ratio IC50 [3] | further results
1 | CCN1CCC(CCNCc2cc3ccccc3nc2SCc2ccccc2)CC1 | 26 (≈ 62 µM) | 1 (≈ 2.38 µM) | 26 | –
2 | CSc1nc2ccccc2cc1CNCc1ccc(CN(C)C)cc1 | 29 (≈ 82.5 µM) | 30 (≈ 85.3 µM) | 1 | MIC>85 (Pseudomonas aeruginosa [4]): >256 µg/mL; MIC>85 (Pseudomonas aeruginosa [5]): 256 µg/mL (≈ 728 µM); MIC>85 (Pseudomonas aeruginosa [6]): 128 µg/mL (≈ 364 µM); MIC>85 (Pseudomonas aeruginosa [7]): 64 µg/mL (≈ 182 µM); MIC>85 (Pseudomonas aeruginosa [8]): >256 µg/mL
3 | CN(C)CCCNCc1cc2ccccc2nc1SCc1ccccc1 | 44 (≈ 120 µM) | 6 (≈ 16.4 µM) | 7 | –
4 | CN(C)CCCCCNCc1cc2ccccc2nc1SCc1ccccc1 | 57 (≈ 145 µM) | 2 (≈ 5.08 µM) | 28 | –
5 | CSc1nc2ccccc2cc1CNCCc1nc(C)cc(C)n1 | – | 67 (≈ 198 µM) | – | –
6 | CSc1nc2ccccc2cc1CNCCCN(C)C | – | 43 (≈ 149 µM) | – | –
7 | Cc1cc(C)nc(CCNCc2cc3ccccc3nc2SCc2ccccc2)n1 | – | 3 (≈ 7.24 µM) | – | –
8 | CN(C)CCCCNCc1cc2ccccc2nc1SCc1ccccc1 | 26 (≈ 68.5 µM) | 1 (≈ 2.63 µM) | 26 | –
9 | CN(C)Cc1ccc(CNCc2cc3ccccc3nc2SCc2ccccc2)cc1 | 27 (≈ 63.1 µM) | 2.3 (≈ 5.38 µM) | 12 | MIC>85 (Pseudomonas aeruginosa [4]): >128 µg/mL; MIC>85 (Pseudomonas aeruginosa [5]): >128 µg/mL; MIC>85 (Pseudomonas aeruginosa [6]): 64 µg/mL (≈ 150 µM); MIC>85 (Pseudomonas aeruginosa [7]): 16 µg/mL (≈ 37.4 µM); MIC>85 (Pseudomonas aeruginosa [8]): >128 µg/mL
10 | CSc1nc2ccccc2cc1CNCCc1cccn1C | – | 5 (≈ 16.1 µM) | – | –
11 | CSc1nc2ccccc2cc1CNCCCCN(C)C | – | 68 (≈ 224 µM) | – | –
12 | GENTAMICIN | – | – | – | MIC>85 (Pseudomonas aeruginosa [4]): 2 µg/mL; MIC>85 (Pseudomonas aeruginosa [5]): 2 µg/mL; MIC>85 (Pseudomonas aeruginosa [6]): 16 µg/mL; MIC>85 (Pseudomonas aeruginosa [7]): > 4 µg/mL; MIC>85 (Pseudomonas aeruginosa [8]): 4 µg/mL
13 | c1ccc(CSc2nc3ccccc3cc2CNCCc2cnc[nH]2)cc1 | 7 (≈ 18.7 µM) | 2 (≈ 5.34 µM) | – | IC50 [9]: 14 µg/mL (≈ 37.4 µM)
14 | CSc1nc2ccccc2cc1CNCCC1CCN(C2CCCC2)CC1 | – | 21 (≈ 54.7 µM) | – | –
15 | CSc1nc2ccccc2cc1CNCc1ccc(N(C)C)cc1 | – | 5 (≈ 14.8 µM) | – | –
16 | CN(C)c1ccc(CNCc2cc3ccccc3nc2SCc2ccccc2)cc1 | – | – | – | solubility [10]: > 16 µg/mL
17 | CSc1nc2ccccc2cc1CNCCCCCN(C)C | – | 19 (≈ 59.8 µM) | – | –
18 | Cn1cccc1CCNCc1cc2ccccc2nc1SCc1ccccc1 | – | 4 (≈ 10.3 µM) | – | –
19 | c1ccc(CSc2nc3ccccc3cc2CNCCC2CCN(C3CCCC3)CC2)cc1 | 14 (≈ 30.5 µM) | 1 (≈ 2.18 µM) | 14 | –
20 | CCN1CCC(CCNCc2cc3ccccc3nc2SC)CC1 | – | 39 (≈ 114 µM) | – | –
21 | CSc1nc2ccccc2cc1CNCCc1cnc[nH]1 | – | 16 (≈ 53.6 µM) | – | –
